# Source: PubChem BioAssay (NCI)
#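 Values below derive from 48-hour exposures of cells grown in 96-well plates, with endpoints linearly interpolated between the two concentrations bracketing the appropriate inhibition level. TGI is the concentration that stops growth completely.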
# How the values were obtained:
# Experiment in all cases: NCI tumour cell line growth inhibition, 48 h
# 786-0 renal = system: 786-0 renal
# A549 NSCLC = system: A549 NSCLC
# ACHN renal = system: ACHN renal
# CAKI-1 renal = system: CAKI-1 renal
# COLO 205 colon = system: COLO 205 colon
# DLD-1 colon = system: DLD-1 colon
# DMS 114 small cell lung = system: DMS 114 small cell lung
# DMS 273 small cell lung = system: DMS 273 small cell lung
# EKVX NSCLC = system: EKVX NSCLC
# HCC-2998 colon = system: HCC-2998 colon
# HCT-116 colon = system: HCT-116 colon
# HL-60(TB) leukemia = system: HL-60(TB) leukemia
# HOP-18 NSCLC = system: HOP-18 NSCLC
# HOP-92 NSCLC = system: HOP-92 NSCLC
# HT29 colon = system: HT29 colon
# IGROV1 ovarian = system: IGROV1 ovarian
# K-562 leukemia = system: K-562 leukemia
# KM12 colon = system: KM12 colon
# KM20L2 colon = system: KM20L2 colon
# LOX IMVI melanoma = system: LOX IMVI melanoma
# LXFL 529 NSCLC = system: LXFL 529 NSCLC
# M14 melanoma = system: M14 melanoma
# M19-MEL melanoma = system: M19-MEL melanoma
# MALME-3M melanoma = system: MALME-3M melanoma
# MOLT-4 leukemia = system: MOLT-4 leukemia
# NCI-H226 lung = system: NCI-H226 lung
# NCI-H23 lung = system: NCI-H23 lung
# NCI-H460 lung = system: NCI-H460 lung
# NCI-H522 lung = system: NCI-H522 lung
# OVCAR-3 ovarian = system: OVCAR-3 ovarian
# OVCAR-4 ovarian = system: OVCAR-4 ovarian
# OVCAR-5 ovarian = system: OVCAR-5 ovarian
# OVCAR-8 ovarian = system: OVCAR-8 ovarian
# RPMI-8226 leukemia = system: RPMI-8226 leukemia
# RXF 393 renal = system: RXF 393 renal
# RXF-631 renal = system: RXF-631 renal
# SF-268 CNS = system: SF-268 CNS
# SF-295 CNS = system: SF-295 CNS
# SF-539 CNS = system: SF-539 CNS
# SK-MEL-2 melanoma = system: SK-MEL-2 melanoma
# SK-MEL-28 melanoma = system: SK-MEL-28 melanoma
# SK-MEL-5 melanoma = system: SK-MEL-5 melanoma
# SK-OV-3 ovarian = system: SK-OV-3 ovarian
# SN12C renal = system: SN12C renal
# SNB-19 CNS = system: SNB-19 CNS
# SNB-75 CNS = system: SNB-75 CNS
# SNB-78 CNS = system: SNB-78 CNS
# SR leukemia = system: SR leukemia
# SW-620 colon = system: SW-620 colon
# TK-10 renal = system: TK-10 renal
# U251 CNS = system: U251 CNS
# UACC-257 melanoma = system: UACC-257 melanoma
# UACC-62 melanoma = system: UACC-62 melanoma
# UO-31 renal = system: UO-31 renal
# XF 498 CNS = system: XF 498 CNS
# A498 renal = system: A498 renal
# CCRF-CEM leukemia = system: CCRF-CEM leukemia
# HCT-15 colon = system: HCT-15 colon
# HOP-62 NSCLC = system: HOP-62 NSCLC
structure (smiles),measurement,setting,value
COc1ccc(C(c2c(O)c3ccccc3n(C)c2=O)c2c(O)c3ccccc3n(C)c2=O)cc1,TGI,786-0 renal,> 100 µM
same,TGI,A549 NSCLC,> 100 µM
same,TGI,ACHN renal,> 100 µM
same,TGI,CAKI-1 renal,> 100 µM
same,TGI,COLO 205 colon,> 100 µM
same,TGI,DLD-1 colon,> 100 µM
same,TGI,DMS 114 small cell lung,> 100 µM
same,TGI,DMS 273 small cell lung,> 100 µM
same,TGI,EKVX NSCLC,> 100 µM
same,TGI,HCC-2998 colon,> 100 µM
same,TGI,HCT-116 colon,> 100 µM
same,TGI,HL-60(TB) leukemia,90.7 µM
same,TGI,HOP-18 NSCLC,> 100 µM
same,TGI,HOP-92 NSCLC,> 100 µM
same,TGI,HT29 colon,> 100 µM
same,TGI,IGROV1 ovarian,> 100 µM
same,TGI,K-562 leukemia,> 100 µM
same,TGI,KM12 colon,> 100 µM
same,TGI,KM20L2 colon,45.7 µM
same,TGI,LOX IMVI melanoma,> 100 µM
same,TGI,LXFL 529 NSCLC,> 100 µM
same,TGI,M14 melanoma,> 100 µM
same,TGI,M19-MEL melanoma,> 100 µM
same,TGI,MALME-3M melanoma,> 100 µM
same,TGI,MOLT-4 leukemia,> 100 µM
same,TGI,NCI-H226 lung,69.5 µM
same,TGI,NCI-H23 lung,66.7 µM
same,TGI,NCI-H460 lung,> 100 µM
same,TGI,NCI-H522 lung,60 µM
same,TGI,OVCAR-3 ovarian,> 100 µM
same,TGI,OVCAR-4 ovarian,> 100 µM
same,TGI,OVCAR-5 ovarian,> 100 µM
same,TGI,OVCAR-8 ovarian,> 100 µM
same,TGI,RPMI-8226 leukemia,> 100 µM
same,TGI,RXF 393 renal,> 100 µM
same,TGI,RXF-631 renal,> 100 µM
same,TGI,SF-268 CNS,> 100 µM
same,TGI,SF-295 CNS,> 100 µM
same,TGI,SF-539 CNS,63.3 µM
same,TGI,SK-MEL-2 melanoma,> 100 µM
same,TGI,SK-MEL-28 melanoma,> 100 µM
same,TGI,SK-MEL-5 melanoma,54.6 µM
same,TGI,SK-OV-3 ovarian,> 100 µM
same,TGI,SN12C renal,> 100 µM
same,TGI,SNB-19 CNS,> 100 µM
same,TGI,SNB-75 CNS,> 100 µM
same,TGI,SNB-78 CNS,67.5 µM
same,TGI,SR leukemia,> 100 µM
same,TGI,SW-620 colon,> 100 µM
same,TGI,TK-10 renal,> 100 µM
same,TGI,U251 CNS,44.2 µM
same,TGI,UACC-257 melanoma,46.4 µM
same,TGI,UACC-62 melanoma,98 µM
same,TGI,UO-31 renal,> 100 µM
same,TGI,XF 498 CNS,> 100 µM
CC1=C(C(=O)NCc2ccccc2)C(c2ccccc2[N+](=O)[O-])C(C(=O)NCc2ccccc2)=C(C)N1,TGI,786-0 renal,25.4 µM
same,TGI,A498 renal,32.4 µM
same,TGI,A549 NSCLC,68.1 µM
same,TGI,ACHN renal,27.4 µM
same,TGI,CAKI-1 renal,50 µM
same,TGI,CCRF-CEM leukemia,44.7 µM
same,TGI,COLO 205 colon,33.8 µM
same,TGI,DLD-1 colon,20.3 µM
same,TGI,DMS 114 small cell lung,29.8 µM
same,TGI,DMS 273 small cell lung,25.4 µM
same,TGI,EKVX NSCLC,30.1 µM
same,TGI,HCC-2998 colon,31.2 µM
same,TGI,HCT-116 colon,19.7 µM
same,TGI,HCT-15 colon,22.4 µM
same,TGI,HL-60(TB) leukemia,13.2 µM
same,TGI,HOP-18 NSCLC,35.1 µM
same,TGI,HOP-62 NSCLC,35.1 µM
same,TGI,HOP-92 NSCLC,36.6 µM
same,TGI,HT29 colon,28 µM
same,TGI,IGROV1 ovarian,40.9 µM
same,TGI,K-562 leukemia,24.8 µM
same,TGI,KM12 colon,23.1 µM
same,TGI,KM20L2 colon,30.3 µM
same,TGI,LOX IMVI melanoma,21.3 µM
same,TGI,LXFL 529 NSCLC,23.1 µM
same,TGI,M14 melanoma,23.9 µM
same,TGI,M19-MEL melanoma,23.9 µM
same,TGI,MALME-3M melanoma,27 µM
same,TGI,MOLT-4 leukemia,50.5 µM
same,TGI,NCI-H226 lung,30.4 µM
same,TGI,NCI-H23 lung,25.4 µM
same,TGI,NCI-H460 lung,31.4 µM
same,TGI,OVCAR-3 ovarian,19.2 µM
same,TGI,OVCAR-4 ovarian,22.9 µM
same,TGI,OVCAR-5 ovarian,36.6 µM
same,TGI,OVCAR-8 ovarian,43.3 µM
same,TGI,RXF 393 renal,23.4 µM
same,TGI,RXF-631 renal,29.2 µM
same,TGI,SF-268 CNS,22.9 µM
same,TGI,SF-295 CNS,25.4 µM
same,TGI,SF-539 CNS,25.8 µM
same,TGI,SK-MEL-28 melanoma,26 µM
same,TGI,SK-MEL-5 melanoma,25.9 µM
same,TGI,SN12C renal,27.4 µM
same,TGI,SNB-19 CNS,27.5 µM
same,TGI,SNB-75 CNS,26.6 µM
same,TGI,SNB-78 CNS,42.6 µM
same,TGI,SR leukemia,35.8 µM
same,TGI,SW-620 colon,28.1 µM
same,TGI,TK-10 renal,31.4 µM
same,TGI,U251 CNS,22.8 µM
same,TGI,UACC-257 melanoma,29.4 µM
same,TGI,UACC-62 melanoma,22.9 µM
same,TGI,UO-31 renal,27 µM
same,TGI,XF 498 CNS,31.9 µM
